Data published in article PMC11409218, “Metal(triphenylphosphine)-atovaquone Complexes: Synthesis, Antimalarial Activity, and Suppression of Heme Detoxification” (Inorganic Chemistry, 2024).
Where two headings read alike, the source gives them in different places.

Legend:
[1] = system: P. falciparum W2 (CQ-resistant strain); assay: Antiplasmodial activity, asexual blood stages, HRP2 ELISA-based assay, W2 strain; assay type: cell-based, Plasmodium falciparum; details: CQ-resistant W2 strain, 72 h drug incubation, mean of five to seven experiments, read-out: P. falciparum IC50 (±SEM), W2
Experimental: The potency of the metal complexes to inhibit parasite growth was also examined in comparison with ATV.
The two strains were synchronized twice with sorbitol before use,[69] and clonality was verified every 15 days through PCR genotyping of the polymorphic genetic markers msp1 and msp2 and microsatellite loci.[70],[71] Compounds were resuspended in DMSO and then diluted in RPMI-DMSO (99v/1v) to obtain final concentrations ranging from 0.25 to 20000 nM.
After freezing and then thawing, the hemolyzed cultures were homogenized by vortexing the plates. The drug susceptibility assay was performed using the HRP2 ELISA-based assay of the Malaria Ag Celisa kit (ref KM2159, Cellabs PTY LDT, Brookvale, Australia), as described previously.[72]

[2] = system: HepG2 cells; assay: Cytotoxicity in mammalian cells (CellTiter-Glo), HepG2; assay type: cell-based; details: HepG2 human hepatocellular carcinoma line; 72 h drug incubation; mean of three experiments; read-out: mammalian cells CC50 (±SEM), HepG2
Experimental: (§1) Cell lines J774 and HepG2 were incubated with the drug for 72 h, the same time frame as employed to determine antimalarial activity. Cytotoxicity was evaluated in parallel with ATV as a representative parental drug, while doxorubicin was used as a standard cytotoxic drug. These experiments were also used to estimate the in vitro selectivity index (Table 2).
(§2) Doxorubicin chloridrate (Eurofarma, São Paulo, Brazil) was used as a positive control, while untreated cells were employed as negative controls. Bioluminescence readings were performed using a Filtermax F5Multi-Mode instrument (Molecular Devices, Sunnyvale, CA) using the CellTiter-Glo kit (Promega Corporation, Madison, USA). Three independent experiments were performed and CC50 values were calculated.

[3] = system: J774 cell line; assay: Cytotoxicity after preincubation of compounds in cell culture medium (Figure 3B); assay type: cell-based, murine; details: J774 cells; compound preincubated 0 or 72 h in culture medium
Experimental: Figure 3 (A) Antiplasmodial activity of the compounds against the 3D7 strain of P. falciparum. (B) Cytotoxicity against the J774 cell line. In both cases, the compounds were diluted in cell culture and incubated for 0 or 72 h before use in the assays. […] In panels A and C, parasite viability was measured by HRP2 ELISA-based assay, and IC50 values were calculated. In panel B, cell viability was measured by CellTiter-Glo, and IC50 values were calculated. In panels A and B, the values are the mean and standard deviation of two independent experiments, using each concentration of compounds in duplicate. In panel C, the values are the mean and standard deviation of one experiment, using each concentration of compounds in quadruplicate. *p < 0.05; indicating significant difference by Student’s t test.
To further shed light on this, we performed the same experiment described above but assessing cytotoxicity in […] cells (Figure 3B). […] Our data also confirm not only drug stability but also the reactivity of the resulting products as important parameters.

[4] = Chemical stability in solution (UV–vis, NMR, molar conductivity); assay type: physicochemical; details: for ΛM (DMSO) Day 1 / ΛM (DMSO) Day 2 / ΛM (DMSO) Day 3 / ΛM (DMSO) Day 7 / ΛM (DMSO) Day 15: molar conductivity in DMSO, stability; for stability by UV–vis in pure DMSO: primarily within 0–24 h
Experimental: Three distinct methodologies were used to investigate the in-solution stability of metal–ATV complexes 1–3, namely ultraviolet–visible (UV–vis) spectra, NMR, and molar conductivity. All experiments were performed in dimethyl sulfoxide (DMSO) and monitored for at least 72 h, a time frame which coincides with antimalarial drug treatment.
Furthermore, no significant changes in the ^1H NMR and ^31P{^1H} NMR spectra of the complexes were observed up to 72 h in comparison to freshly dissolved solution, denoted as time 0 h (Figures S20–S25). However, for the ^31P{^1H} NMR spectrum of the complex 3, it is observed an increasing intensity of the singlet at 28 ppm that can be attributed to oxidized PPh3, which may be leaving the coordination sphere, but this is relative low when compared with the signal of the complex at −1.76 ppm. Both molar conductivity and NMR data therefore indicate that the metal complexes remained intact in this condition. The observed […] in DMSO is likely related to the fact that the metal atoms are bonded to phosphine ligands, hindering any oxidation of the metal center.
As for the UV–vis analyses, these were used to assess the stability of metal–ATV complexes 1–3 in a solution of pure DMSO or DMSO mixed with aqueous media. To this end, three different conditions were employed in parallel experiments. […] The small change in absorbance observed can be attributed to dynamic equilibrium processes or structural reorganization of the metal complexes. These processes may include partial dissociation of ligands, reorientation of solvent molecules around the metal ion, or even conformational changes of the metal complexes. […] Highlighting that these conditions are the most similar to those employed in the determination of biological activity. Based on this, we concluded that in mixed aqueous/organic media, ATV and complexes 1–3 may undergo slight structural modifications, but no significant ligand exchange reactions occur, as previously observed in the stability studies by NMR.
For the stability studies by NMR spectroscopy, fresh solutions of the complexes in DMSO-d6 with concentrations of 22–25 mM were used. In the studies by UV–vis spectroscopy, three experimental conditions were employed: a) only DMSO, b) 90% DMSO/10% H2O, and c) 90% DMSO/10% RPMI 1640 (Roswell Park Memorial Institute) medium, with concentrations of the complexes 1-3 in 0.28–0.35 μM, 0.25–0.28 μM and 0.32–0.38 μM, respectively. Fresh solutions of the complexes dissolved in DMSO were always used and subsequently diluted with water or RPMI medium.

[5] = system: β-hematin crystal formation; assay: β-Hematin crystal formation by FTIR spectroscopy; assay type: biochemical; details: acid-buffered medium pH 5; 1:3 hematin/compound ratio
Experimental: The ability of these compounds to inhibit the formation of β-hematin crystals was investigated by IR spectroscopy (Figure 2f). Of note, β-hematin crystal formation was assayed in an acid-buffered medium, while hemin titration was assayed at neutral pH. […]. For both ATV and complexes 1–3, there may have been overlapping between a decrease in the (C = O) band of heme species and a (C = O) band of quinone. However, there was no danger of overlaps in the (C–O) band of heme species at 1210 cm^–1, since these species are absent from the drugs.
The conversion of hematin into β-hematin crystals was determined by FTIR spectroscopy as described previously.[52] In a microtube, 20 mg hemin and three equivalents of the compounds were dissolved in 3 mL 0.1 M NaOH solution and stirred for 30 min at 60 °C. Then, 0.3 mL 0.1 M HCl and 1.7 mL sodium acetate buffer (10 M, pH 5) were added at the same temperature. […] After incubation for 120 min, the reaction mixture was cooled on ice for 10 min and then centrifuged and washed with water to remove salts. Resulting crystals were dried and IR spectra were obtained using ATR mode.[66]−[68]

[6] = Cytotoxicity in mammalian cells (CellTiter-Glo), J774; assay type: cell-based; details: mouse, J774 macrophage cells; J774 murine macrophage line; 72 h drug incubation; mean of three experiments; read-out: mammalian cells CC50 (±SEM), J774
Experimental: as §1, §2

[Ag(ATV)(PPh3)2] [Complex 1]
IC50 [1]: 0.0265 ± 0.0078 µM
CC50 [2]: 14.6 ± 0.9 µM
cell viability (cytotoxicity) after 72 h incubation in cell culture medium versus freshly prepared samples (0 h) [3]: became less cytotoxic
ΛM (DMSO) Day 1 [4]: 12.81 Ohm-1cm2mol-1
ΛM (DMSO) Day 2 [4]: 13.90 Ohm-1cm2mol-1
ΛM (DMSO) Day 3 [4]: 16.14 Ohm-1cm2mol-1
ΛM (DMSO) Day 7 [4]: 13.70 Ohm-1cm2mol-1
ΛM (DMSO) Day 15 [4]: 12.17 Ohm-1cm2mol-1

O=C1C(O)=C([C@H]2CC[C@H](c3ccc(Cl)cc3)CC2)C(=O)c2ccccc21 [ATV, atovaquone]
IC50 ([1]; Plasmodium falciparum): 0.0021 ± 0.0009 µM
inhibition of β-hematin crystal formation (IR bands 1663 and 1210 cm^–1) [5]: unable to inhibit β-hematin crystal formation
CC50 at 72 h [6]: 19.8 ± 1.6 µM
ΛM (DMSO) Day 1 [4]: 0.93 Ohm-1cm2mol-1
ΛM (DMSO) Day 2 [4]: 1.07 Ohm-1cm2mol-1
ΛM (DMSO) Day 3 [4]: 1.23 Ohm-1cm2mol-1
ΛM (DMSO) Day 7 [4]: 1.68 Ohm-1cm2mol-1
ΛM (DMSO) Day 15 [4]: 2.04 Ohm-1cm2mol-1

[Au(ATV)(PPh3)]·2H2O [Complex 2]
IC50 [1]: 0.0052 ± 0.0022 µM
CC50 [2]: 8.9 ± 2.7 µM
cell viability (cytotoxicity) after 72 h incubation in cell culture medium versus freshly prepared samples (0 h) [3]: remained unchanged
ΛM (DMSO) Day 1 [4]: 12.69 Ohm-1cm2mol-1
ΛM (DMSO) Day 2 [4]: 14.51 Ohm-1cm2mol-1
ΛM (DMSO) Day 3 [4]: 12.53 Ohm-1cm2mol-1
ΛM (DMSO) Day 7 [4]: 12.41 Ohm-1cm2mol-1
ΛM (DMSO) Day 15 [4]: 11.84 Ohm-1cm2mol-1
stability by UV–vis in pure DMSO [4]: modifications were observed in the electronic spectra

O=C1C([O][Cu]([PH](c2ccccc2)(c2ccccc2)c2ccccc2)[PH](c2ccccc2)(c2ccccc2)c2ccccc2)=C([C@H]2CC[C@H](c3ccc(Cl)cc3)CC2)C(=O)c2ccccc21 [Complex 3, [Cu(ATV)(PPh3)2]]
IC50 [1]: 0.0263 ± 0.0069 µM
CC50 [2]: 44.3 ± 7.7 µM
cell viability (cytotoxicity) after 72 h incubation in cell culture medium versus freshly prepared samples (0 h) [3]: remained unchanged
stability by UV–vis in 90% DMSO mixed with 10% water ([4]; 90% DMSO/10% H2O): major change in the spectra
ΛM (DMSO) Day 1 [4]: 3.71 Ohm-1cm2mol-1
ΛM (DMSO) Day 2 [4]: 3.80 Ohm-1cm2mol-1
ΛM (DMSO) Day 3 [4]: 3.47 Ohm-1cm2mol-1
ΛM (DMSO) Day 7 [4]: 3.14 Ohm-1cm2mol-1
ΛM (DMSO) Day 15 [4]: 3.05 Ohm-1cm2mol-1
stability by UV–vis in pure DMSO [4]: modifications were observed in the electronic spectra
